One data set relates to NHDF cells. The experiment in a line: CellTiter Glo ATP luciferase assay. It is filed as cell-based, human. The conditions noted are these: human, 6 days. On the procedure: Fibroblasts were treated with increasing concentrations of MBX-4992 and MBXC-4336 for up to 6 days and cell number was measured periodically using Hoechst stain to quantify cell proliferation (A and B). Cyclohexamide (CHX) and DMSO (−) were used as positive and negative controls for cytotoxicity respectively. Cell cytostaticity (C and D) was assessed using ATP-based CellTiter Glo luciferase assay following extended incubation with increasing concentrations of MBX-4992 and MBXC-4336 for 1 or 6 days. Relative light units (RLU) were measured following cell lysis and normalized to DMSO treated cells for each time point.
The CellTiter Glo Luminescent Assay (Promega Inc, Madison, WI) was performed according to the manufacturer's instruction. NHDF cells (10^4) were plated in a 96-well plate overnight and treated with MBX-4992 or MXC-4336 ([…]) in triplicate for up to 6 days. Cyclohexamide (50 μg/mL) was used as a control. CellTiter Glo substrate was added in a 1:1 ratio with media and CellTiter-Glo reagent followed by the analysis of luciferase activity (relative light units, RLU) using a BioTek Synergy H1 microplate reader. In parallel, an identical plate was labelled with Hoescht reagent (25 μg/mL) to quantify the cell number using a Celigo Cytometer.
Next, the cytostaticity and cytotoxicity of treatment with MBX-4992 and MBXC-4336 was analyzed. […]

Another data set has as its system HCMV GDGr K17 (GCV^R). The experiment in a line: Herpes virus panel neutralization, GCV-resistant HCMV. The class given is cell-based, Human cytomegalovirus. How it is done:
To determine the specificity of MBX-4992, additional neutralization experiments were conducted using a panel of herpes viruses performed in the presence of MBX-4992. […] Collectively, the antiviral activity of MBX-4992 is equivalent to that of GCV indicating specific inhibition of CMV replication.

A further data set relates to AD169 CMV virus. Nature of the data set: Time-of-addition assay. The class given is cell-based, Human cytomegalovirus. The conditions noted are these: 10 μM added -60 to 90 minutes post-infection, infection quantified at 24 hpi. On the procedure:
FIG. 5A-C are graphs showing that NAPA compounds target an early, post-attachment step of the CMV virus. (A) MBX-4992 (10 μM) was added along a time course post infection with AD169 (MOI 0.2) from −60 to 90 minutes after virus addition to NHDF fibroblasts. Infection at 24 hours was quantified after an immunostain with an anti-IE1 antibody. Percent infection was normalized to untreated cells where media was added either-60 or 90 minutes after virus addition. A schematic of the experimental design is shown.
NHDF cells (10^4) were plated in a 96-well plate overnight. A working stock of MBX-4992 at 20 μM was used as a 2×to achieve a final concentration of 10 μM. […] At […], the cells were fixed with 4% paraformaldehyde, stained with a rabbit anti-IE1 antibody followed by an anti-rabbit Alexa 647, and analyzed using the Celigo cytometer. Using the −60 DMSO treated cells as 100% infectivity, the percent relative to maximum infection was determined from cells treated with drug at different time points.
To further analyze the step of CMV entry targeted by NAPA compound MBX-4992, a time of addition assay was performed. MBX-4992 (10 μM) was added at various times during […] infection (−60, 0, 15, 30, 60, and 90 minutes post-infection (mpi)) with AD169 CMV virus and viral infection was quantified at 24 hpi. […]

The source of these data is patent US20250177392A1, “BROAD SPECTRUM INHIBITORS OF CYTOMEGALOVIRUS” (MICROBIOTIX, INC., priority 2022, published 2025).

`Cc1nc(Nc2cccc(NC(=O)c3ccco3)c2)cc(N2CCCCC2)n1` [MBXC-4336]: the “decrease of luciferase activity” value with NHDF cells came out at 10%.

`Cc1nc(Nc2ccc(NC(=O)c3ccco3)cc2)cc(N2CCCC2)n1` [MBX-4992]: the SI in the data set with HCMV GDGr K17 (GCV^R) (HCMV GDGr K17 (GCV^R)) is reported as >83. The compound further registered an IC50 in the data set with HCMV GDGr K17 (GCV^R) (Human betaherpesvirus 5) of 1800 nM. For the same compound, the “inhibition of infection by time of addition” value in the data set on AD169 CMV virus is “most effective at preventing infection when introduced prior to and within 30 mpi”.
